SMILES strings stand for the structures. Counter-ions that a name gives are not always drawn.

For one experiment, the target named is T1, Cdc7/Dbf4 complex (Homo sapiens, UniProt O00311).
T1 construct: Full-length Cdc7 co-expressed with full-length Dbf4; purchased Carna Biosciences (Kobe)
Nature of the experiment: Measurement of Cdc7 kinase inhibitory activity (Transcreener ADP HTRF assay). As to conditions: read-out: inhibitory rate (%) at 1 μM, test compound 1 μM; Cdc7/Dbf4, 1.0 μm ATP, 10 μg/ml MCM2. It is filed as biochemical. On the procedure:
Full-length Cdc7 co-expressed with full-length Dbf4 was purchased from Carna Biosciences (Kobe). The enzyme activity of Cdc7/Dbf4 complex was detected by homogeneous time-resolved fluorescence method Transcreener ADP assay (Cisbio Inc., MA, U.S.A.). […] Free ADP produced by ATP hydrolysis was detected by Eu^3+-Cryptate-labeled anti-ADP monoclonal antibody competitively with d2-labeled ADP, and the production amount thereof was measured. The obtained time-resolved fluorescence resonance energy transfer signal was measured by EnVision (Perkin Elmer Inc., MA, U.S.A.). The inhibitory rate (%) of the test compound to Cdc7 was calculated by the following formula. Inhibitory rate(%)=(1−(count of test compound-blank)[…](control-blank))×100
The count of the Cdc7/Dbf4 reaction mixture under compound-free conditions was taken as the control, and that under compound-free and Cdc7/Dbf4-free conditions was taken as the blank.
In general terms: Time-resolved FRET reads energy transfer from a long-lived donor to a nearby acceptor.

Experiment [1] relates to human colorectal cancer cell Colo205. Nature of the experiment: Measurement of growth inhibitory activity on human colorectal cancer cell Colo205 (CellTiter-Glo). It is filed as cell-based. As to conditions: COLO 205, 72 h, read-out: inhibitory rate (%) at 1 μM. The procedure:
The growth inhibition of colorectal cancer cell Colo205 with the compound of the present invention can be measured as follows.
A cell suspension (100 μl) of human colorectal cancer cell Colo205 (purchased from ATCC) (3,000 cells/well) was plated in a 96 well plate, and cultured in a 5% carbon dioxide gas incubator at 37° C. for 1 day. Each 2 μM test compound solution was added by 100 μl and the cells were cultured for 3 days. CellTiter-Glo™ Luminescent Cell Viability Assay reagent (50 μl, Promega) was added to the 96 well plate, the luminescence level was measured by a luminometer and the residual ATP amount was taken as the cell amount. The luminescence level of a well free of cell plating was taken as a blank. The cell proliferation inhibitory rate (%) of the test compound was calculated by the following formula. Inhibitory rate(%)=(1−(luminescence level of test compound—blank)[…](luminescence level of control group—blank))×100
On the technique in general: Cellular ATP, detected with luciferase, serves as a proxy for viable cell number.

Experiment [2] relates to phosphorylated MCM2 (Ser40/Ser41). Nature of the experiment: Measurement of MCM2 phosphorylation inhibitory activity in human colorectal cancer cell Colo205 (Western blot). Type of experiment: cell-based. As to conditions: COLO 205, 8 h, read-out: inhibitory rate (%) at 1 μM. The procedure:
The MCM2 phosphorylation suppressive action of the compound of the present invention in human colorectal cancer cell Colo205 can be measured as follows. A cell suspension (500 μl) of human colorectal cancer cell Colo205 (purchased from ATCC) (50,000 cells/well) was plated in a 24 well plate, and cultured in a 5% carbon dioxide gas incubator at 37° C. for 1 day. […] The plate was washed with PBS, the cells were lysed in Laemmli Sample Buffer (BioRad), and cell lysate was treated at 95° C. for 5 min.
(In general: In western blotting, separated proteins are transferred to a membrane and probed.)

Experiment [3] relates to human colorectal cancer cell Colo205. Nature of the experiment: Measurement of antitumor activity in human colorectal cancer cell Colo205 cancer bearing mouse. Particulars: Colo205 tumor growth ratio, mice, 100 mg/kg orally twice a day for 14 days. It is filed as in vivo. On the procedure: Tumor volume=long diameter×short diameter×short diameter×(½) Mice having an engrafted tumor volume of about 200 mm^3 were selected, and 5 mice per group were used for the experiment. […] The tumor diameter was measured one day before the start of the administration and the next day of the completion of the administration and the tumor volume was calculated. The tumor growth ratio of the test compound administration group as compared to that of the control administration group was taken as T/C(%) and calculated by the following formula. T/C(%)=(tumor volume of test compound administration group after completion of administration−tumor volume of test compound administration group one day before start of administration)/(tumor volume of control administration group after completion of administration−tumor volume of control administration group one day before start of administration))×100

Experiment [4] has as its system phosphorylated MCM2 (Ser40/Ser41). Kind of experiment: animal or person. As to conditions: Mus musculus, COLO 205, po, 4 h, read-out: inhibitory rate (%).
Method: Human colorectal cancer cell Colo205 was suspended in 50% Matrigel solution, and transplanted into 6- to 7-week-old female BALB/c mice (CLEA Japan, Inc.) at 5.0×10^6 cells by subcutaneous injection. The diameter of the tumor engrafted in 7 to 14 days from the transplantation was measured, and the tumor volume was calculated by the following formula. Tumor volume=long diameter×short diameter×short diameter×(½)
A suspension of the test compound in 0.5% methylcellulose solution (Wako Pure Chemical Industries, Ltd.) was orally administered at a dose shown in the Table to mice having a tumor volume of 150-600 mm^3. The tumor was removed under ether anesthesia at 4 hr after administration of the test compound, and homogenized in Cell Lysis Buffer (Cell Signaling). Using BCA Protein assay kit (Thermo Scientific), the protein in the tumor lysate was quantified, and the protein amount was adjusted. The above-mentioned protein solution was treated with Laemmli Sample Buffer (BioRad) at 95° C. for 5 min.
Then, SDS-PAGE was performed and the protein was transferred onto a PVDF membrane by using iBlot™ gel transfer system (Invitrogen). […] The membrane was washed in the same manner as above, chemical luminescence of antibody-labeled phosphorylated MCM2 protein using SuperSignal West FemtoMaximum Sensitivity Substrate (Pierce Biotechnology) was detected by lumino image analyzer LAS-1000 (Fuji Film).
Using the anti-MCM2 antibody (Santa Cruzu Biotechnology, sc-9839) and HRP-labeled goat IgG polyclonal antibody (Santa Cruzu Biotechnology, sc-2020) and in the same manner as above, the MCM2 protein was detected.
The phosphorylated MCM2 specific activity of each sample was calculated by the following formula. Phosphorylated MCM2 specific activity=(phosphorylated MCM2 luminescence level-background)+(MCM2 luminescence level-background)
The phosphorylated MCM2 protein inhibitory rate (%) of the test compound was calculated by the following formula and shown in Table. […]

T1 sequence (O00311 whole entry): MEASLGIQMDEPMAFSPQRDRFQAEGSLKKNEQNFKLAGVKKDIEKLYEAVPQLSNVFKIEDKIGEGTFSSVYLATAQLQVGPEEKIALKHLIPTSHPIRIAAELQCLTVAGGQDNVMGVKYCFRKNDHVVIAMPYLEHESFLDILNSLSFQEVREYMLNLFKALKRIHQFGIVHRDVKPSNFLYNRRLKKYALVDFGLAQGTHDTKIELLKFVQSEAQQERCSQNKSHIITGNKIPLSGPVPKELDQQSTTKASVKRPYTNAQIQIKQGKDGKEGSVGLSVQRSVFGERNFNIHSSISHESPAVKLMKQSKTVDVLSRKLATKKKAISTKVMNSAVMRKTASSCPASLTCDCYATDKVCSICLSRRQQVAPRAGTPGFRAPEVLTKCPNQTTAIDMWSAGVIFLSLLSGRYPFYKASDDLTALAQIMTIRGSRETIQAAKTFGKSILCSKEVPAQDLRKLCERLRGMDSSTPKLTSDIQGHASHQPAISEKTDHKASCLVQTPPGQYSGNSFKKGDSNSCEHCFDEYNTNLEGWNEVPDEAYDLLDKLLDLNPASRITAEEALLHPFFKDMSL
T1 sequence (Q9UBU7 whole entry partner): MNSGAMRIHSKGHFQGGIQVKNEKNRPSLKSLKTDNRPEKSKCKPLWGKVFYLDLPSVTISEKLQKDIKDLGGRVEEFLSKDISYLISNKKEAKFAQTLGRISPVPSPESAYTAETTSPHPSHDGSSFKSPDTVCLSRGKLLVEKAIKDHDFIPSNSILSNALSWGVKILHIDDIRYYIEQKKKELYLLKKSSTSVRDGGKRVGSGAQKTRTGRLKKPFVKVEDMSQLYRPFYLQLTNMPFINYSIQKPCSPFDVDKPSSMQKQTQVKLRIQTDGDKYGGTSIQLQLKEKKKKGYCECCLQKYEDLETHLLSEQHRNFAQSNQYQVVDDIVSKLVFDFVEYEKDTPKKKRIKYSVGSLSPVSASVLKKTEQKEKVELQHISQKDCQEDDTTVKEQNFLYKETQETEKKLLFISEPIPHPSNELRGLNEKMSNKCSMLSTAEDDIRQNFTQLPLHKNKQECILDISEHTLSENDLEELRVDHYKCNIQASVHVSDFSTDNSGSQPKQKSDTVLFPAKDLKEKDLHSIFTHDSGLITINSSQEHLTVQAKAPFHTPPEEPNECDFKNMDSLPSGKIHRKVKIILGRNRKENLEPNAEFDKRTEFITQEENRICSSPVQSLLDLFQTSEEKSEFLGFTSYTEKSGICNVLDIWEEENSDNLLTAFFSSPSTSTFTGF

In the case of `O=c1[nH]c([C@@H]2CCCCN2)nc2cc(-c3cn[nH]c3C(F)(F)F)sc12` [Example 161, 2-[(2S)-piperidin-2-yl]-6-[5-(trifluoromethyl)-1H-pyrazol-4-yl]thieno[3,2-d]pyrimidin-4 (3H)-one hydrochloride], the inhibition at 1 µM on Cdc7/Dbf4 complex was 102%; in experiment [1] it was 78.6%; in experiment [2], 96.2%. In addition, the “T/C (%)” value in experiment [3] was −3.6%. Also, in experiment [4], the inhibition at 100 mg/kg was found to be 80.9%.

The values above are taken from patent US9388195B2, “Heterocyclic compound” (Takeda Pharmaceutical Company Limited, priority 2010, dated 2016).
